In paper PMC4647570, “Ketoreductase TpdE from Rhodococcus jostii TMP1: characterization and application in the synthesis of chiral alcohols” (PeerJ, 2015) one finds Km data, which are given here for nine compounds.

This assay deals with T1, TpdE.
T1 construct: C-terminal His6 tag, pET-tpdE in E. coli BL21 (DE3), Ni-chelating column, ~30 kDa on SDS-PAGE; residues T15, G16, G20, G22, N119, S148, Y161, K165
Kind of assay: NADPH oxidation at […] nm, Michaelis-Menten fit. In kind it is biochemical, Rhodococcus jostii. The settings on record: 0.2 mM NADPH, 50 mM phosphate pH 7.2, 30 °C; apparent.
One may read the Km as the substrate concentration at which the rate is half of its maximum. As to `CCCCC(=O)C(C)=O` [2,3-Heptanedione], the Michaelis constant (Km) was 6.9 ± 0.9 mM.
Regarding `CCC(=O)C(C)=O` [2,3-Pentanedione], the Km is 0.98 ± 0.2 mM.
Consider `CCCC(=O)C(C)=O` [2,3-Hexanedione], for which the Km was determined as 2.2 ± 0.4 mM.
Take `CC(=O)C(C)S` (stereo not drawn) [3-Mercapto-2-butanone]: the Michaelis-Menten constant (Km) turned out to be 14.4 ± 4.8 mM.
On to `CCCC(=O)OC(C)C(C)=O` (stereo not drawn) [Butan-3-one-2-yl-butanoate], for which the Km was 0.76 ± 0.1 mM.
In the case of `CC(=O)C(C)O` (stereo not drawn) [Acetoin], the Michaelis-Menten constant (Km) was 5 ± 0.3 mM.
Turning to `CC(=O)C(C)(C)O` [3-Hydroxy-3-methyl-2-butanone], the Km was determined as 14.6 ± 4 mM.
Take `CCC(=O)C(=O)CC` [3,4-Hexanedione]: the Km worked out at 3.3 ± 0.6 mM.
Take `CC(=O)C(C)=O` [Diacetyl]: the Km turned out to be 1.9 ± 0.3 mM.
